Data reported in patent publication US12312352B2, “Use of a DPP-4 inhibitor in SIRS and/or sepsis” (Boehringer ingelheim International GmbH, priority 2012, dated 2025).

Experiments:
septic rats = assay: Survival of septic rats (LPS 10 mg/kg i.p.) with and without linagliptin treatment; format: in vivo, female Wistar rats; details: 24 hours after LPS 10 mg/kg i.p.; linagliptin diet from 2 days before LPS; LPS alone about 28%; p=0.015 LPS vs. LPS+Linagliptin; preliminary data
Experimental: Animals are injected at day 2 with 10 mg/kg LPS (lipopolysaccharide) i.p. and observed for 4 additional days.
It should be noted that the survival curve only represents preliminary data (“pseudo Kaplan-Meier-curve”) since the exact time point of death of the rats is not assessed. The female Wistar rats are injected with LPS in the morning, monitored during the day and transferred back to the stable in the evening. Deaths are registered in the morning of the next day.

[1] = Mean plasma concentration of linagliptin in rats on linagliptin diet; format: in vivo; details: diet containing 0.083 mg/kg linagliptin
septic animals = details: cited from earlier work
[2] = Safety and tolerability in people with type 2 diabetes
septic mice = assay: Survival in experimental sepsis, first study: LPS 20 mg/kg i.p. on Day 6 of 7 days treatment; details: linagliptin 5 mg/kg/d in drinking water (p=0.067), liraglutide 0.2 mg/kg/d s.c. injection (p=0.005), placebo/LPS 100% die within 48 h
[3] = Pharmacokinetics of BI 1356 after multiple oral doses (1, 2.5, 5 or 10 mg once daily for 12 days) in patients with type 2 diabetes

## CC#CCn1c(N2CCC[C@@H](N)C2)nc2c1c(=O)n(Cc1nc(C)c3ccccc3n1)c(=O)n2C [linagliptin]
Septic rats
  mortality: No mortality
[1]
  mean plasma concentration: 50 to 150 nM
Septic animals; experimental sepsis model
  vascular dysfunction, vascular inflammation and aortic, cardiac and blood oxidative stress: improves vascular dysfunction and vascular inflammation as well as aortic, cardiac, and blood oxidative stress
Septic animals; septic animals, previous studies
  immune cell infiltration into the vascular tissue: prevention of immune cell infiltration into the vascular tissue
[2]
  safety and tolerability: placebo-like
Septic mice
  survival vs placebo/LPS group: trend for a higher survival rate
[3]; human, in vivo
  form and route of excretion: primarily excreted unchanged via the bile
[3]; therapeutic oral dose levels
  main organ of excretion: mainly excreted via the liver
